Results taken from patent US11767298B2, “Substituted benzimidazoles as inhibitors of transforming growth factor-β kinase” (Duke University, priority 2016, dated 2023).

Columns and labels:
GFP-PfPK9 = GFP-PfPK9 (Plasmodium falciparum, UniProt Q8IEG4); experiment: ATP-competitive binding assay (ATP-sepharose pull-down, FLECS); conditions: GFP-PfPK9; Kd calculated from EC50 of ATP pull-down dose-response; read-out: Kd, app
Procedure: Primary small-molecule screen. A small-molecule screen was performed similar to a previously reported fluorescence linked enzyme chemoproteomic strategy (FLECS). Briefly, HEK293-GFP-PfPK9 cells were grown in 182-cm^2 tissue culture flasks (Genesee Scientific) and harvested at ˜80% cell confluency. Before assays the culture medium was aspirated, cells were rinsed with ice cold PBS and then they were removed with a cell scraper. Cells were pelleted by centrifugation (2,000 rpm, 4° C., 2 min) and immediately lysed for assays. The pellet was suspended in buffer A (25 mM HEPES, pH 7.4, 150 mM NaCl, 60 mM MgCl2, 1 mM DTT) with 1 μM microcystin, 0.1% Triton X-100 plus a Roche Complete protease inhibitor tablet and then placed on ice for 30 min to facilitate lysis. The supernatant was collected after centrifugation (4,300 rpm, 4° C., 5 min) and used in subsequent screening and titrations experiments. For screening, the supernatant was added to ATP-sepharose beads (1:1) and incubated with agitation at 4° C. for at least 1 hr to allow binding. Following this incubation, the mixture was centrifuged, the ATP resin was washed with 9 column volumes of buffer A with 1 M NaCl and then 9 column volumes of buffer A. The ATP-sepharose medium was reconstituted as a 1:1 slurry with buffer A and then added to 96-well filter plates (50 μL/well) (Corning #3505) using a multichannel pipette (Rainin). The filter plate was on top of black 96-well catch plates (Corning #3915). An ATP dilution series (1-200 mM) was added to each plate as a positive control and DMSO was the negative control. Compounds and controls were all added to 50 μL per well in buffer A. For screening, compounds were tested in singlicate at 500 μM. The final DMSO concentration in every well was 5%. The fluorescence intensity in each well was measured on an EnVision system. Data analyses of screens were carried out in EXCEL (Microsoft, Corp.) and actives were identified as 2×background signal.
All screening positives that were verified with Western blot analysis were purchased from Enamine or Vitas-M laboratory. The purity of compounds 1-5 (shown below) was verified by high-resolution MS (Agilent). Compounds were tested in 8-point dose-response (0-500 μM) experiments in duplicate, essential as described above. The fluorescence intensity in each well was measured using an EnVision system. Dose-response analysis was performed with GraphPad Prism to acquire EC50 values. Determined EC50 values were used to calculate the observed PfPK9 Kd and reported values are the average of 2-3 independent experiments.
Stable cell line generation. The P. falciparum PK9 gene (PlasmoDB accession #PF3D7_1315100) was cloned into the pEGFP-C1 mammalian expression vector (Clontech) in frame with a […] GFP tag. For screening, HEK293 cells were transfected with the resulting PfPK9-pEGFP-C1 vector to generate HEK293-GFP-PfPK9 expressing cells using X-tremeGENE HP transfection reagent (Roche) per the manufacturer instructions. Briefly, the culture medium was replaced at 48 hours post-transfection with medium supplemented with 1 mg/mL G418 sulfate (Life Technologies) to select for stably transfected cells. Following stable cell selection, fluorescence activated cell sorting (FACS) was used to enrich for GFP-PfPK9 expressing cells. Subsequently, FACS sorted HEK293-GFP-PfPK9 cells were cultured with medium supplemented with 0.5 mg/mL G418 sulfate for all following experiments. Protein expression was verified by Western blot analysis probing for anti-GFP and by fluorescence intensity using an EnVision (PerkinElmer) system.
All 14 positive molecules were also tested for their binding affinity to PfPK9 using an optimized ATP-competitive binding assay. EC50 values ranging from low μM to low mM were observed and these EC50 values were used to derive dissociation constants as described previously. […]

PfPK9 = experiment: UBC13 phosphorylation by PfPK9 (ADP luminescence assay); assay type: biochemical, P. falciparum; conditions: compared to DMSO
Procedure: Recombinant protein expression and enzyme activity assay. Recombinant GST-tagged PfPK9 was expressed in E. coli BL21(DE3) cells, purified to homogeneity, and the GST tag was cleaved with PreScission Protease (GE Healthcare). To test for inhibition of PfPK9, the ADP detection assay ADP-Glo (Promega) was used to determine ATPase activity of PfPK9 in the presence of the PfUBC13 protein substrate when treated with compounds 1 and 5. Approximately 500 nM PfPK9 was incubated with either compound (10 μM or 500 μM) for 5 min at RT in buffer containing 40 mM Tris, pH 7.5, 20 mM MgCl2, 2 mM MnCl2 and 1 mM DTT prior to assay initiation with 100 μM ATP. The assay was performed in white low-volume 384-well plates (Corning #3824) in triplicate. The assay plate was sealed and subsequently incubated for 8 hrs at 37° C. before ADP detection per manufacturer instructions. The final assay volume was 5 μL with a final concentration of 1% DMSO. A negative control was performed in 1% DMSO and heat inactivated PfPK9 (80° C. for 5 min) was used as a positive control. The luminescence intensity in each well was measured on an EnVision system. Data were normalized to the average luminescence signal of the negative control to provide relative ADP concentrations and graphs were constructed in GraphPad Prism. Data analyses were conducted from three independent experiments. […]

GFP-PfPK9, sequence (Q8IEG4 entry or part of it): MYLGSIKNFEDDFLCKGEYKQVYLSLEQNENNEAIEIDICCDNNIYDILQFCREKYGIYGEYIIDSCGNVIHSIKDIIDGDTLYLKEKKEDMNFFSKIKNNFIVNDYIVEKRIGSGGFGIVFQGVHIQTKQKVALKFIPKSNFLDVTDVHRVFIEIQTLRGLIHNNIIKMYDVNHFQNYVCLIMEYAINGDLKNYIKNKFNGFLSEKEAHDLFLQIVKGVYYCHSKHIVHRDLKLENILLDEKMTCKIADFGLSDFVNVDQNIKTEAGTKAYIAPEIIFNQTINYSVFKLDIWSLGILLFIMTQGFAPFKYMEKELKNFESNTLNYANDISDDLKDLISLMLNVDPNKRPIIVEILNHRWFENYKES

With `CCCn1c(NC(=O)c2cccc(C(N)=O)c2)nc2ccccc21` [HS-206 (1), (E)-N-(1-Propyl-1,3-dihydro-2H-benzo[d]imidazol-2-ylidene)isophthalamide] as the molecule, how does the Kd (GFP-PfPK9) read?
The Kd was 200 nM.

And the “UBC13 phosphorylation by PfPK9” value (PfPK9)?
The value was “significantly decreased”.
